Data taken from patent publication US20180110740A1, “METHODS AND MATERIALS FOR TREATING ENDOMETRIOSIS” (Mayo Foundation for Medical Education and Research, priority 2015, published 2018).

Experiments:
CYP3A4 = CYP3A4 promoter, expression and activity in Ishikawa cells (reporter assay, qPCR, western blot, specific substrate assay); format: cell-based; details: Dioxin 0.1-10 nM
Description: (§1) Ishikawa cells were treated with Dioxin (0.1-10 nM) and KLF11 or EV-control. Treatment effects were determined on CYP3A4, a well-characterized CYP450 gene that is also an endometrial estrogen metabolizing enzyme. Promoter and gene expression were determined by reporter assay, qPCR, and western blot. CYP3A4 activity was determined by a specific substrate assay. Promoter histone code was evaluated by ChIP in Ishikawa treated with Dioxin and Histone Acetyl Transferase Inhibitor (HATI) or controls. The Dioxin-endometriosis model was created per published protocols in wild type mice gavaged with Dioxin (3 μg/kg) or vehicle. Animals were additionally treated 0.2 μg/gm/day of HATI or vehicle control (N=10/grp). Disease progression was evaluated in 12 weeks by morphometry, IHC, and qPCR.

[1] = system: endometriotic progression; test: Dioxin-endometriosis model in wild type mice; format: in vivo; details: wild type mice gavaged with Dioxin 3 μg/kg, HATI 0.2 μg/gm/day or vehicle
Description: as §1

endometriotic lesions = test: Endometriotic lesion model: autologous uterine segments implanted onto the peritoneum of Klf11-/- or wt mice; format: in vivo; details: wt animals; 50 μg/g of body weight; evaluated three weeks after treatment; vs DMSO
Description: FIG. 4 is a schematic diagram showing the design of the mouse endometriosis model. Two 0.5 cm uterine fragments are everted, so that the endometrium faces the peritonel cavity. These are then sutured to the flank peritoneum on either side by 8/0 proline microfilament suture.
FIG. 5 contains photographs of Klf11^-/- and wt animals induced to produce endometriosis lesions and treated with DMSO (control), garcinol (0.2 μg/g of body weight, or suberoyl anilide hydroxamic acid (SAHA; 50 μg/g of body weight). SAHA is also known as N-hydroxy-N′-phenyl-octanediamide or vorinostat. Endometriotic progression was evaluated three weeks after treatment. The arrows point to and define lesion associated scarring.
In another experiment, endometriotic lesions were induced in Klf11^-/- or wildtype (wt) mice (n=10 for each group) by implanting autologous 5 mm uterine segments onto the peritoneum (FIGS. 3 and 4). […] In addition, COL1A1 polypeptide expression was increased in implants from Klf11^-/- animals (FIGS. 3D and 3H) as compared to those from wt animals (FIGS. 3C and 3G).

Compound | CYP3A4 activation (CYP3A4) | lesional CYP3A4 expression ([1]; 12 weeks) | Score ([1]; 12 weeks, P<0.05) | endometriotic disease progression ([1]; evaluated in 12 weeks by morphometry, IHC, qPCR) | fibrosis (endometriotic lesions)
Clc1cc2c(cc1Cl)Oc1cc(Cl)c(Cl)cc1O2 [Dioxin, 2,3,7,8-tetrachlorodibenzodioxin] | dose-dependently activated | lesional epithelial CYP3A4 activation | 26.4 | prolific endometriotic progression | –
O=C(CCCCCCC(=O)Nc1ccccc1)NO [SAHA, N-hydroxy-N′-phenyl-octanediamide] | – | – | – | – | induction of de novo fibrosis
